Test results published in patent US8138191B2, “Inhibitor compounds and cancer treatment methods” (Critical Outcome Technologies Inc., priority 2007, dated 2012).

Tests used:
CYP2C8 = target: T1, CYP2C8 (Homo sapiens, UniProt P10632); experiment: CYP2C8 Inhibition (HLM, paclitaxel substrate)
T1 sequence (P10632 1-490): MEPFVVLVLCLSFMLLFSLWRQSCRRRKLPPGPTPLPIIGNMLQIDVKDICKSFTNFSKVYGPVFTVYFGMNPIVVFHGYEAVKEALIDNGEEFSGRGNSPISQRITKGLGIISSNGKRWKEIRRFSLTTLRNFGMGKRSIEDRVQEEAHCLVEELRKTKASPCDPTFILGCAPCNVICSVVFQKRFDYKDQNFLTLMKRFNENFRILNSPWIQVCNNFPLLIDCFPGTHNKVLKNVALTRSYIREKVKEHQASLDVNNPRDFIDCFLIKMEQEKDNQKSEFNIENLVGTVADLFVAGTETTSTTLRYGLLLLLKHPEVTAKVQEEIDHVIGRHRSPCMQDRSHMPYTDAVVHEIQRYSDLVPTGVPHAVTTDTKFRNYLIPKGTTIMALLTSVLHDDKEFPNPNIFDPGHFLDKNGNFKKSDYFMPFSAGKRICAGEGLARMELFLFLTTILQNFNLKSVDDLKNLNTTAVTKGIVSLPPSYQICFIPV

CYP2C19 = CYP2C19 (Homo sapiens, UniProt P33261); experiment: CYP2C19 Inhibition (HLM, omeprazole substrate)
CYP2C9 = CYP2C9 (Homo sapiens, UniProt P11712); experiment: CYP2C9 Inhibition (HLM, diclofenac substrate)
Chain of CYP2C9 (P11712 whole entry): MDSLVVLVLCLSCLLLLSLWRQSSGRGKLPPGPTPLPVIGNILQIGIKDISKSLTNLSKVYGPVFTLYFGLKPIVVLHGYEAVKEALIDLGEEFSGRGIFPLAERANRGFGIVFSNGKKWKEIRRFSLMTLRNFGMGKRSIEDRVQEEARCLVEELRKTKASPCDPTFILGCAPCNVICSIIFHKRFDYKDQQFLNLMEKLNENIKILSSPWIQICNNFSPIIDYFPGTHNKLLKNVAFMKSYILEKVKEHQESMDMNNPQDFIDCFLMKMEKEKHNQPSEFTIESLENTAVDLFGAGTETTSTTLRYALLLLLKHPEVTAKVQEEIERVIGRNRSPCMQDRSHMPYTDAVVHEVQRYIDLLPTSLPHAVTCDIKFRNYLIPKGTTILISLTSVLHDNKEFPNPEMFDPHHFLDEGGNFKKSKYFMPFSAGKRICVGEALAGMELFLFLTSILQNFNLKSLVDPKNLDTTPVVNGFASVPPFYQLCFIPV

Chain of CYP2C19 (P33261 whole entry): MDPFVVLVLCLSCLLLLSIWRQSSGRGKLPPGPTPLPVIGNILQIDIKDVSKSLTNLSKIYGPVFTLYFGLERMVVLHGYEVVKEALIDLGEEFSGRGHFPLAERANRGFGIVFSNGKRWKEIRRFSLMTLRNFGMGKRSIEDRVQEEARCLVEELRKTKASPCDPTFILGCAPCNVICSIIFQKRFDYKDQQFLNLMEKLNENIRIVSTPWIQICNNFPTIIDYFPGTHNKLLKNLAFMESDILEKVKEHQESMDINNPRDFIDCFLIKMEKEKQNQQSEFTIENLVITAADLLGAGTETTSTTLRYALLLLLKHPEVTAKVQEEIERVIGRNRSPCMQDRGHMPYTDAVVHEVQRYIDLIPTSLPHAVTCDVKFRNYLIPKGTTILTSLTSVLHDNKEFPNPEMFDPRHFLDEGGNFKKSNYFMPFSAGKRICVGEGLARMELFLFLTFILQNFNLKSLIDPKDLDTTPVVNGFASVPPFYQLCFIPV

COC(=O)C1=C(C)NC(C)=C(C(=O)OCCN(C)Cc2ccccc2)C1c1cccc([N+](=O)[O-])c1 (stereo not drawn) [Nicardipine]
nH (CYP2C8): 1.2

CCN(CC)CC#CCOC(=O)C(O)(c1ccccc1)C1CCCCC1 (stereo not drawn) [Oxybutynin]
nH (CYP2C19): 1.1

Nc1ccc(S(=O)(=O)Nc2ccnn2-c2ccccc2)cc1 [Sulfaphenazole]
nH (CYP2C9): 1.1
